Data reported in ChEMBL document CHEMBL1139930, “Solvatochromism, DNA binding, antitumor activity and molecular modeling study of mixed-ligand copper(II) complexes containing the bulky ligand: bis[N-(p-tolyl)imino]acenaphthene” (Eur J Med Chem, 2007).
Values after ≈ are worked out from the molar mass of the structure shown.

Tests used:
[1] = Displacement of methyl green from DNA; design: species or system Homo sapiens
[2] = tested on: Ehrlich; assay: Antitumor activity against Ehrlich ascites carcinoma cells in mouse assessed as haemoglobin level at 20 mg/kg after 14 days; type: functional
[3] = tested on: Ehrlich; assay: Antitumor activity against Ehrlich ascites carcinoma cells in mouse assessed as increase in life span at 20 mg/kg relative to control; type: functional
[4] = tested on: Ehrlich; assay: Antitumor activity against Ehrlich ascites carcinoma cells in mouse assessed as RBC count at 20 mg/kg after 14 days; type: functional
[5] = tested on: Ehrlich; assay: Antitumor activity against Ehrlich ascites carcinoma cells in mouse assessed as WBC count at 20 mg/kg after 14 days; type: functional
[6] = tested on: Ehrlich; assay: Antitumor activity against Ehrlich ascites carcinoma cells in mouse assessed as cell viability at 20 mg/kg after 5 days; type: functional

SMILES | IC50 [1] | Activity [2] | Activity [3] | Activity [4] | Activity [5] | Activity [6]
COc1cccc2c1C(=O)c1c(O)c3c(c(O)c1C2=O)C[C@@](O)(C(C)=O)C[C@@H]3O[C@H]1C[C@H](N)[C@H](O)[C@H](C)O1 [DAUNORUBICIN] | 28 µg/mL (≈ 53.1 µM) |  |  |  |  | 
O=c1[nH]cc(F)c(=O)[nH]1 [FLUOROURACIL] |  | 15.6% | 42.8% | 5.87 /10^6mm3 | 14.7 /10^3mm3 | 83.6 10^6/100microL
